Source: patent US20230271940A1, “HETEROARYL SUBSTITUTED 3-(1-OXOISOINDOLIN-2-YL)PIPERIDINE-2,6-DIONE DERIVATIVES AND USES THEREOF” (Novartis AG, priority 2020, published 2023)

The compounds below were run against IKZF2 (Homo sapiens, UniProt Q96SW2+Q9UKS7) (assay: Prolabel quantification of IKZF2 protein levels in 293GT cells). Details: not given.
Type: cell-based
Method: (§1) The Prolabel system from DiscoverX was used to develop high-throughput and quantitative assays to measure changes in IKZF1, IKZF2 and GSPT1 protein levels in response to compounds. The prolabel tag was derived from the alpha fragment of beta galactosidase and has the following protein sequence: mssnslavvlqadwenpgvtqlnrlaahppfaswrnseeartdipsqqlislnge. The complementary fragment of beta-galactosidase (from DiscoverX), is added to the prolabel tag to form an active beta galactosidase enzyme whose activity can be precisely measured. In this way, the levels of a fusion protein with the prolabel tag can be quantified in cell lysates.
Lentiviral vectors, based on the Invitrogen pLenti6.2/V5 DEST backbone, were constructed that placed the prolabel tag upstream of IKZF1, IKZF2 or GSPT1 and expressed the fusion protein from a CMV promoter.
To ensure moderate and consistent expression of the prolabel fusion proteins across all cells in the population, stable cell lines were constructed from cells expressing a single copy of the construct. Lentivirus packaged with the constructs was made using the Virapower kit from Invitrogen.
The levels of prolabel tagged fusion proteins in compound treated cell lines were measured as follows:
Day 1, Cells were diluted to 1.0×10^6 cells/ml in normal growth medium. 17.5 μL of cells were plated in each well of a solid white 384 well plate. Plates were incubated overnight in a 37° C. tissue culture incubator.
Day 2, Serial dilutions of compounds were made in 384 well plates from 10 mM stocks. 15 μL of DMSO was added to each well of a 384 well plate. In the first column, 15 μL of stock compound was added. The solution was mixed and 15 μL was transferred to the next column. This was repeated until 20 two-fold dilutions were prepared. 2.5 μL of diluted compounds were transferred into 60 μL of cell culture medium in another 384 well plate, and mixed well. […] of this mixture was added to the plated cells. The final DMSO concentration was 0.5% and the highest concentration of compound was 50 μM. Plates were incubated overnight (e.g., about 14 h, 18 h, or 24 h) in a 37° C. tissue culture incubator.
Day 3, Plates were removed from the incubator and allowed to equilibrate at r.t. for 30 minutes. Prolabel substrate (DiscoverX PathHunter Prolabel Detection Kit, User manual: 93-0180) was added as described by the manufacturers protocols. Plates were incubated at r.t. for three hours and luminescence was read using an Envision reader (Perkin Elmer) Data was analyzed and visualized using the Spotfire software package.

Chain of IKZF2 (Q9UKS7 whole entry): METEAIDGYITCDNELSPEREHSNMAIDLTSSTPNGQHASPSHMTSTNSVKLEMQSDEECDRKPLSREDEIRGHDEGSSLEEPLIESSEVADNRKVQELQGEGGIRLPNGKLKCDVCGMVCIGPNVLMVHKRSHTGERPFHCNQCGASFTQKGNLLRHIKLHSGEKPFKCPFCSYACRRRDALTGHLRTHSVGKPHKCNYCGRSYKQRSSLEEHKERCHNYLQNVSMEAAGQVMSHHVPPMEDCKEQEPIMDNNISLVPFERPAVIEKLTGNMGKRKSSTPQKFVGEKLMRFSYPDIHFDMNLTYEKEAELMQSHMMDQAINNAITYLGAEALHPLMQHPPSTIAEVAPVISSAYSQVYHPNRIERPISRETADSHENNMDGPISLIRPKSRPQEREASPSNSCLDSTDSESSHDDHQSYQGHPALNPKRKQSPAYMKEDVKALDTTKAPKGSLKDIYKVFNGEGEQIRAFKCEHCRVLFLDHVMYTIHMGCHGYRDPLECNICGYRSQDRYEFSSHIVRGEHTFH
Chain of IKZF2 (Q96SW2 whole entry): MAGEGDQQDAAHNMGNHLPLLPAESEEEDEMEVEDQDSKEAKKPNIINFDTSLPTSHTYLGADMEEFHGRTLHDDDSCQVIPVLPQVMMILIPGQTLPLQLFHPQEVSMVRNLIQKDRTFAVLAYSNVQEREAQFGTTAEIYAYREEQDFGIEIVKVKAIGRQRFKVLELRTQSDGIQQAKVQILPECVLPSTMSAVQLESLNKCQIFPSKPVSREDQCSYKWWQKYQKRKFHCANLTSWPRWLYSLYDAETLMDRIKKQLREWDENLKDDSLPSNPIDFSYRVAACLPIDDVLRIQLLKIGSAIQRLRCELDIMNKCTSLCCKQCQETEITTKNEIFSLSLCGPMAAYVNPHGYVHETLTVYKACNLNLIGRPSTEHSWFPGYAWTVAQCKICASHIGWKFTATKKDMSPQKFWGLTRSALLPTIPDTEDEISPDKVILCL
Chain of IKZF2 (Q16531 whole entry partner): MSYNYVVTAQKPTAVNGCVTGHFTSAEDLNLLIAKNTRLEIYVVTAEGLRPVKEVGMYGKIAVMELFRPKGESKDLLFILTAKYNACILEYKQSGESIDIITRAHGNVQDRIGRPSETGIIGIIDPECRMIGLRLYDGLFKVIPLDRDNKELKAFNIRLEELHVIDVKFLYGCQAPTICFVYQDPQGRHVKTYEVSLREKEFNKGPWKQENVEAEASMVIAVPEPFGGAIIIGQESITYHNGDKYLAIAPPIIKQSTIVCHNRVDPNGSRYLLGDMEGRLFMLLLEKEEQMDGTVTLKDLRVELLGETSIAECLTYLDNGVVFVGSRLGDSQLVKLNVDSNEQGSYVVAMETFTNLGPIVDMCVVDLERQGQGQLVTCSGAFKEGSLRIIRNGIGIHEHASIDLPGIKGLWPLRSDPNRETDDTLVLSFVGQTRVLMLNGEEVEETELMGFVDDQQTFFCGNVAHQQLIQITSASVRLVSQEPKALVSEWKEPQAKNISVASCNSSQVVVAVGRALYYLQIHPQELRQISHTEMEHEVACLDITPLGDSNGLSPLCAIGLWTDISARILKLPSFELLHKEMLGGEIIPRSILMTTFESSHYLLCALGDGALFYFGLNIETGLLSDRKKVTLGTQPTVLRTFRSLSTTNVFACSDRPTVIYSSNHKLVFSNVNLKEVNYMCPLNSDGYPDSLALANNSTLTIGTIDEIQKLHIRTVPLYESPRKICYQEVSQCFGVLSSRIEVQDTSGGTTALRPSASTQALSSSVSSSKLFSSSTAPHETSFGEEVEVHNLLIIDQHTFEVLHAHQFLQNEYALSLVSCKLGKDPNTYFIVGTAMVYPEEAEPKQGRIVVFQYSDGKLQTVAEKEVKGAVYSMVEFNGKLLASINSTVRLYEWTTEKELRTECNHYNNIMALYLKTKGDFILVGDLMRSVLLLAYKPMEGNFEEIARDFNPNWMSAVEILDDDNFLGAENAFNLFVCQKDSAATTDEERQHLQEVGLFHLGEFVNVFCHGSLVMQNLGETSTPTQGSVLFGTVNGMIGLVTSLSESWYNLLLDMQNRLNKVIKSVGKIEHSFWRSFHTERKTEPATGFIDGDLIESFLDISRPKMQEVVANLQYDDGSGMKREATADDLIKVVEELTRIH

| SMILES | IKZF2 % protein reduction at 10 μM, 24 h [%] |
| --- | --- |
| O=C1CCC(N2Cc3cc(-c4nc5[nH]c(=O)ccc5[nH]4)ccc3C2=O)C(=O)N1 (stereo not shown) [Compound I-6, 3-(1-oxo-5-(5-oxo-4,5-dihydro-1H-imidazo[4,5-b]pyridin-2-yl)isoindolin-2-yl)piperidine-2,6-dione] | 75 |
| CCn1nc(-c2ccc3c(c2)CN(C2CCC(=O)NC2=O)C3=O)cc1C(F)(F)F (stereo not shown) [Compound I-7, 3-(5-(1-ethyl-5-(trifluoromethyl)-1H-pyrazol-3-yl)-1-oxoisoindolin-2-yl)piperidine-2,6-dione] | 10 |
| CCNc1ccc(-c2ccc3c(c2)CN(C2CCC(=O)NC2=O)C3=O)nn1 (stereo not shown) [Compound I-22, 3-(5-(6-(ethylamino)pyridazin-3-yl)-1-oxoisoindolin-2-yl)piperidine-2,6-dione] | 60 |
| CO[C@H]1CC[C@H](Cc2ccc(-c3ccc4c(c3)CN(C3CCC(=O)NC3=O)C4=O)nn2)CC1 (stereo partly shown) [Compound I-25] | 68 |
| COc1cc(Cc2ccccc2)nnc1-c1ccc2c(c1)CN(C1CCC(=O)NC1=O)C2=O (stereo not shown) [Compound I-28, 3-(5-(6-benzyl-4-methoxypyridazin-3-yl)-1-oxoisoindolin-2-yl)piperidine-2,6-dione] | 73 |
| CCn1nc(-c2ccc3c(c2)CN(C2CCC(=O)NC2=O)C3=O)cc1OC (stereo not shown) [Compound I-34, 3-(5-(1-ethyl-5-methoxy-1H-pyrazol-3-yl)-1-oxoisoindolin-2-yl)piperidine-2,6-dione] | 50 |
| COc1cc(-c2ccc3c(c2)CN(C2CCC(=O)NC2=O)C3=O)nn1Cc1ccccc1 (stereo not shown) [Compound I-40, 3-(5-(1-benzyl-5-methoxy-1H-pyrazol-3-yl)-1-oxoisoindolin-2-yl)piperidine-2,6-dione] | 80 |
| O=C1CCC(N2Cc3cc(-c4cccnn4)ccc3C2=O)C(=O)N1 (stereo not shown) [Compound I-42, 3-(1-oxo-5-(pyridazin-3-yl)isoindolin-2-yl)piperidine-2,6-dione] | 80 |
| CCN(CC)Cc1ccc(-c2ccc3c(c2)CN(C2CCC(=O)NC2=O)C3=O)nn1 (stereo not shown) [Compound I-43, 3-(5-(6-((diethylamino)methyl)pyridazin-3-yl)-1-oxoisoindolin-2-yl)piperidine-2,6-dione] | 40 |
| O=C1CCC(N2Cc3cc(-c4nc5ncccc5[nH]4)ccc3C2=O)C(=O)N1 (stereo not shown) [Compound I-46, 3-(5-(1H-imidazo[4,5-b]pyridin-2-yl)-1-oxoisoindolin-2-yl)piperidine-2,6-dione] | 80 |

Same assay, conditions: 10 μM, 24 h, Prolabel assay, 293GT cells

| SMILES | IKZF2 % protein reduction at 10 μM, 24 h [%] |
| --- | --- |
| Cc1cc(-c2ccc3c(c2)CN(C2CCC(=O)NC2=O)C3=O)nn1Cc1ccc(C#N)cc1 (stereo not shown) [Compound I-5, 4-((3-(2-(2,6-dioxopiperidin-3-yl)-1-oxoisoindolin-5-yl)-5-methyl-1H-pyrazol-1-yl)methyl)benzonitrile] | 35 |
| O=C1CCC(N2Cc3cc(-c4cc[nH]n4)ccc3C2=O)C(=O)N1 (stereo not shown) [Compound I-8, 3-(1-oxo-5-(1H-pyrazol-3-yl)isoindolin-2-yl)piperidine-2,6-dione] | 10 |
| O=C1CCC(N2Cc3cc(-c4ccn(Cc5ccccc5)n4)ccc3C2=O)C(=O)N1 (stereo not shown) [Compound I-9, 3-(5-(1-benzyl-1H-pyrazol-3-yl)-1-oxoisoindolin-2-yl)piperidine-2,6-dione] | 20 |
| CCn1nc(-c2ccc3c(c2)CN(C2CCC(=O)NC2=O)C3=O)c2ccccc21 (stereo not shown) [Compound I-11, 3-(5-(1-ethyl-1H-indazol-3-yl)-1-oxoisoindolin-2-yl)piperidine-2,6-dione] | 30 |
| CCNc1cnnc(-c2ccc3c(c2)CN(C2CCC(=O)NC2=O)C3=O)c1 (stereo not shown) [Compound I-21, 3-(5-(5-(ethylamino)pyridazin-3-yl)-1-oxoisoindolin-2-yl)piperidine-2,6-dione] | 60 |
| O=C1CCC(N2Cc3cc(-c4ccc(Cc5ccccc5)nn4)ccc3C2=O)C(=O)N1 (stereo not shown) [Compound I-24, 3-(5-(6-benzylpyridazin-3-yl)-1-oxoisoindolin-2-yl)piperidine-2,6-dione] | 90 |

The remaining lines, values ahead:

| IKZF2 % protein reduction at 10 μM, 24 h [%] | SMILES |
| --- | --- |
| 0 | O=C1CCC(N2Cc3cc(-c4cn(Cc5ccccc5)cn4)ccc3C2=O)C(=O)N1 (stereo not shown) [Compound I-1, 3-(5-(1-benzyl-1H-imidazol-4-yl)-1-oxoisoindolin-2-yl)piperidine-2,6-dione] |
| 50 | Cc1c[nH]nc1-c1ccc2c(c1)CN(C1CCC(=O)NC1=O)C2=O (stereo not shown) [Compound I-3, 3-(5-(4-methyl-1H-pyrazol-3-yl)-1-oxoisoindolin-2-yl)piperidine-2,6-dione] |
| 50 | Cc1cc(-c2ccc3c(c2)CN(C2CCC(=O)NC2=O)C3=O)nn1Cc1ccccc1 (stereo not shown) [Compound I-4, 3-(5-(1-benzyl-5-methyl-1H-pyrazol-3-yl)-1-oxoisoindolin-2-yl)piperidine-2,6-dione] |
| 50 | O=C1CCC(N2Cc3cc(-c4nn(Cc5ccccc5)c5c4CCCC5)ccc3C2=O)C(=O)N1 (stereo not shown) [Compound I-15, 3-(5-(1-benzyl-4,5,6,7-tetrahydro-1H-indazol-3-yl)-1-oxoisoindolin-2-yl)piperidine-2,6-dione] |
| 0 | Cc1cc(-c2ccc3c(c2)CN(C2CCC(=O)NC2=O)C3=O)n[nH]1 (stereo not shown) [Compound I-16, 3-(5-(5-methyl-1H-pyrazol-3-yl)-1-oxoisoindolin-2-yl)piperidine-2,6-dione] |
| 60 | Cc1cn(Cc2ccccc2)nc1-c1ccc2c(c1)CN(C1CCC(=O)NC1=O)C2=O (stereo not shown) [Compound I-17, 3-(5-(1-benzyl-4-methyl-1H-pyrazol-3-yl)-1-oxoisoindolin-2-yl)piperidine-2,6-dione] |
| 40 | O=C1CCC(N2Cc3cc(-c4n[nH]c5ccccc45)ccc3C2=O)C(=O)N1 (stereo not shown) [Compound I-18, 3-(5-(1H-indazol-3-yl)-1-oxoisoindolin-2-yl)piperidine-2,6-dione] |
| 0 | O=C1CCC(N2Cc3cc(-c4nn(Cc5ccccc5)c5ccccc45)ccc3C2=O)C(=O)N1 (stereo not shown) [Compound I-19, 3-(5-(1-benzyl-1H-indazol-3-yl)-1-oxoisoindolin-2-yl)piperidine-2,6-dione] |

The compounds below were run against IKZF1 (Homo sapiens, UniProt Q13422+Q96SW2) (assay: Prolabel quantification of IKZF1 protein levels in 293GT cells). Details: Prolabel assay.
Type: cell-based
Method: as §1
Lentiviral vectors, based on the Invitrogen pLenti6.2/V5 DEST backbone, were constructed that placed the prolabel tag upstream of IKZF1, IKZF2 or GSPT1 and expressed the fusion protein from a CMV promoter. […]
The levels of prolabel tagged fusion proteins in compound treated cell lines were measured as follows: […]
Day 3, Plates were removed from the incubator and allowed to equilibrate at r.t. for 30 minutes. […] Plates were incubated at r.t. for three hours and luminescence was read using an Envision reader (Perkin Elmer) Data was analyzed and visualized using the Spotfire software package.

Chain of IKZF1 (Q13422 whole entry): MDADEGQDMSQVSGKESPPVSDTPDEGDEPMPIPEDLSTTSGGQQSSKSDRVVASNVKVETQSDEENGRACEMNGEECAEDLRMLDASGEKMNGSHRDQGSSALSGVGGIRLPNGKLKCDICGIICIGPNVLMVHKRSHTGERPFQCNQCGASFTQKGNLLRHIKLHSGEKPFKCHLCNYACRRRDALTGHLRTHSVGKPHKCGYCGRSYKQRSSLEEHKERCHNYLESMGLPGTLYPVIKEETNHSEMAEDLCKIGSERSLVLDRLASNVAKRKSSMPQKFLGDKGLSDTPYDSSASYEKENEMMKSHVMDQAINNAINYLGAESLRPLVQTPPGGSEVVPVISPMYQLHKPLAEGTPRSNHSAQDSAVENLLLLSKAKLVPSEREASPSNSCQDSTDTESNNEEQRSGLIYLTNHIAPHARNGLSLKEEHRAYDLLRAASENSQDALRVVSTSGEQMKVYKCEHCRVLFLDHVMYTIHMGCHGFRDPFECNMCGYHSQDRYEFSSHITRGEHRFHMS
Chain of IKZF1 (Q96SW2 whole entry): as the sequence (Q96SW2 whole entry) above
Chain of IKZF1 (Q16531 whole entry partner): as the sequence (Q16531 whole entry partner) above

| IKZF1 degradation @ 10 μM | SMILES |
| --- | --- |
| (80% | Nc1cccc2c1C(=O)N(C1CCC(=O)NC1=O)C2=O (stereo not shown) [Control, Pomalidomide] |
